Assays:
[1] = biological target: T1, Human recombinant MMP-2 (Homo sapiens, UniProt P08253); assay: In vitro MMP inhibition assay, MMP-2 (fluorogenic peptide substrate cleavage, Ki); type: biochemical; conditions: human MMP-2, full length (FL); read-out: hMMP Ki 02/FL
T1 construct: made in house; host or cells: MMP-2-transfected p2AHT2 cells
T1 sequence (P08253 110-660): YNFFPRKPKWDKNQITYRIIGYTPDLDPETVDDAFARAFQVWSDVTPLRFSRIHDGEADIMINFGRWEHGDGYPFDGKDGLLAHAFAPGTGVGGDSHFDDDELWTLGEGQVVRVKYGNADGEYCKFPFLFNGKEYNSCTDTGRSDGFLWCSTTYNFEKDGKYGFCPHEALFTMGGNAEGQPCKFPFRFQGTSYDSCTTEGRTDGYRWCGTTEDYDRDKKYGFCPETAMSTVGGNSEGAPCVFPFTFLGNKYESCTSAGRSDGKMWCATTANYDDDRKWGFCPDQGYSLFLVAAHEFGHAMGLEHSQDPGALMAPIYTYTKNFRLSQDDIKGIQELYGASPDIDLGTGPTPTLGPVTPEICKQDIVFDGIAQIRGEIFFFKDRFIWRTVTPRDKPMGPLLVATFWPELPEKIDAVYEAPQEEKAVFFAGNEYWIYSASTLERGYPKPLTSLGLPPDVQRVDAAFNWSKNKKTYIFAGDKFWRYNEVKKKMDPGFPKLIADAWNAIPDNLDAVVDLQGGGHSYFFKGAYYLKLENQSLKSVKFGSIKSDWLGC
Protocol: Matrix Metalloproteinase inhibitor compounds were analyzed in in vitro MMP Inhibition assays to determine their ability to inhibit the MMP cleavage of peptide substrates. Inhibition constants (Ki) were calculated from the assayed compound-MMP interactions.
Human recombinant MMP-1, MMP-2, MMP-3, MMP-7, MMP-9, MMP-12, MMP-13, MMP-14 and MMP-15 were used in these assays. The enzymes are prepared following known laboratory procedures. Protocols for the preparation and use of these enzymes are available in the scientific literature. See, e.g., Enzyme Nomenclature (Academic Press, San Diego, Calif., 1992) and the citations therein. See also Frije et al., J. Biol. Chem., 26(24), 16766-73 (1994).
The MMP-1 proenzyme may be purified from spent media of MMP-1-transfected HT-1080 cells and the protein purified on a zinc chelating column. The MMP-2 proenzyme may be purified by gelatin Sepharose chromatography from MMP-2-transfected p2AHT2 cells. […]
The inhibitors are analyzed using a single low enzyme concentration with a single substrate concentration fixed at or below the Km. […] Apparent inhibitory constants are determined by non-linear regression of reaction velocity as a function of inhibitor and enzyme concentration using Morrison's equation, as described by Kuzmic, Anal. Biochem. 286, 45-50 (2000). […]

[2] = biological target: T2, catalytic domain of human recombinant MMP-3 (Homo sapiens, UniProt P08254); assay: In vitro MMP inhibition assay, MMP-3 catalytic domain (fluorogenic peptide substrate cleavage, Ki); type: biochemical; conditions: human MMP-3, catalytic domain (CD); read-out: hMMP Ki 03/CD
T2 construct: made in house
T2 sequence (P08254 100-272 limits assumed): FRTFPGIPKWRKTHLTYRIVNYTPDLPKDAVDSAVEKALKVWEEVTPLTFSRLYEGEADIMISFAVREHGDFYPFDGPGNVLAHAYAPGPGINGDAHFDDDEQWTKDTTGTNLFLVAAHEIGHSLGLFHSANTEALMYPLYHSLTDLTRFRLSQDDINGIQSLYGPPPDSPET
Outline: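 The MMP-3 catalytic domain was expressed in E. coli and refolded with zinc. It was preincubated with inhibitor for 1 hr at room temperature in MES buffer pH 6.0 with 1% DMSO, then 4 μM Mca/Dnp fluorogenic peptide was added (ex 330/em 420 nm). Ki came from Morrison-equation fits of rates, with substrate at or below Km and no substrate correction.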

SMILES: COc1cccc(CNC(=O)c2nc3ccc(F)c(OCCC4CCN(C(=O)CO)CC4)c3c(=O)[nH]2)c1 [Example 34, 6-fluoro-5-[2-(1-glycoloylpiperidin-4-yl)ethoxy]-N-(3-methoxybenzyl)-4-oxo-3,4-dihydroquinazoline-2-carboxamide]
- Ki [1]: 5.65 µM
- Ki [2]: 1570 nM

— patent US20110009435A1, “HETERO BICYCLIC CARBOXAMIDE DERIVATIVES AND THEIR PHARMACEUTICAL USE AND COMPOSITIONS” (Pfizer, Inc., priority 2007, published 2011)
